In patent publication US20200038415A1, “AMINOSTEROL COMPOSITIONS AND METHODS OF USING THE SAME FOR TREATING ERECTILE DYSFUNCTION” (Enterin, Inc., priority 2018, published 2020):
Values joined by “and” are separate entries in the source; they are usually repeats but may differ in a detail not shown here. Identical values can stand only once. “Also recorded” adds a separate entry of the source.

Columns and labels:
[1] = Preclinical oral bioavailability and intestinal absorption in rats; format: in vivo; conditions: oral radioactive ENT-01, portal blood concentrations
[2] = tested on: PD patients with constipation; assay: Circadian rhythm of wrist skin temperature; format: in vivo, human; conditions: for circadian rhythm of skin temperature: markers of healthy circadian function (IS, RA, CFI, IV): fixed dose vs baseline, 12 evaluable patients
Protocol: (6) I-Button Temperature Assessment. The I-Button is a small, rugged self-sufficient system that measures temperature and records the results in a protected memory section. The Thermochron I-Button DS1921H (Maxim Integrated, Dallas, Tex.) was used for skin temperature measurement. I-Buttons were programmed to sample every 10 mins., and attached to a double-sided cotton sport wrist band using Velcro, with the sensor face of the I-Button placed over the inside of the wrist, on the radial artery of the dominant hand. Subjects removed and replaced the data logger when necessary (i.e., to have a bath or shower). The value of skin temperature assessment in sleep research is that the endogenous skin warming resulting from increased skin blood flow is functionally linked to sleep propensity. From the collected data, the mesor, amplitude, acrophase (time of peak temperature), Rayleight test (an index of interdaily stability), mean waveforms are calculated.);
(§1) Assessments were made at baseline and at the end of the fixed dose and washout periods. Circadian system status was evaluated by continuously monitoring wrist skin temperature (Thermochron iButton DS1921H; Maxim, Dallas) following published procedures (Sarabia et al. 2008).
Circadian rhythm of skin temperature was evaluable in 12 patients (i.e., those who had recordings that extended from baseline through washout). Circadian system functionality was evaluated by continuously monitoring wrist skin temperature using a temperature sensor (Thermochron iButton DS1921H; Maxim, Dallas, Tex.) (Sarabia et al. 2008). […]
Briefly, this analysis includes the following parameters: (i) the inter-daily stability (the constancy of 24-hour rhythmic pattern over days, IS); (ii) intra-daily variability (rhythm fragmentation, IV); (iii) average of 10-minute intervals for the 10 hours with the minimum temperature (L10); (iv) average of 10-minute intervals for the 5 hours with the maximum temperature (M5) and the relative amplitude (RA), which was determined by the difference between M5 and L10, divided by the sum of both. […]

[3] = tested on: PD patients with constipation; assay: CNS symptoms in Stage 2 (UPDRS, MMSE, PDHQ, BDI-II, sleep diary); format: in vivo, human; conditions: for hallucinations and delusions improved or disappeared during treatment: 6 patients with hallucinations or delusions at baseline
From the text: (5) Sleep Diary (participants completed a sleep diary on a daily basis throughout the study. The diaries included time into bed and estimated time to sleep as well as wake time and duration during the night.);
(8) Beck Depression Inventory (BDI-II);
(9) Unified Parkinson's Disease Rating Scale (UPDRS), which consists of 42 items in four subscales (Part I=Non-Motor Aspects of Experiences of Daily Living (nM-EDL) (1.1 cognitive impairment, 1.2 hallucinations and psychosis, 1.3 depressed mood, Part II=Motor Aspects of Experiences of Daily Living (M-EDL), Part III=Motor Examination, and Part IV=Motor Complications;
(10) Mini Mental State Examination (MMSE);
(12) The University of Miami Parkinson's Disease Hallucinations Questionnaire (UM-PDHQ);
Exploratory end-points, in addition to constipation, included for example, (i) depression assessed using the Beck Depression Inventory (BDI-II) (Steer et al. 2000) and Unified Parkinson's Disease Rating Scale (UPDRS); (ii) cognition assessed using the Mini Mental State Examination (MMSE) (Palsteia et al. 2018), Unified Parkinson's Disease Rating Scale (UPDRS), and Trail Making Test (TMT); (iii) sleep and REM-behavior disorder (RBD) using a daily sleep diary, I-Button Temperature Assessment, a REM sleep behavior disorder (RBD) questionnaire (RBDQ) (Stiasny-Kolster et al. 2007), and the UPDRS; (iv) hallucinations assessed using the PD hallucinations questionnaire (PDHQ) (Papapetropoulos et al. 2008), the UPDRS, and direct questioning; (v) fatigue using the Parkinson's Disease Fatigue Scale (PFS-16) and the UPDRS; (vi) motor functions using the UPDRS; and (vii) non-motor functions using the UPDRS.
as §1
An exploratory analysis was done with respect to the sleep data, the body temperature data, mood, fatigue, hallucinations, cognition and other motor and non-motor symptoms of PD. Continuous measurements within a subject were compared with a paired t-test and continuous measurements between subject groups were compared with a two-group t-test. Categorical data were compared with a chi-squared test or a Fisher's exact test if the expected cell counts are too small for a chi-squared test.

CC(C)[C@@H](CC[C@@H](C)[C@H]1CC[C@H]2[C@@H]3[C@H](O)C[C@H]4C[C@@H](NCCCNCCCCN)CC[C@]4(C)[C@H]3CC[C@]12C)OS(=O)(=O)O (single isomer, unassigned) [squalamine (ENT-01), squalamine]
absorption from the intestine [1]: low
circadian rhythm of skin temperature: markers of healthy circadian function (IS, RA, CFI, IV) [2]: significant positive impact; also recorded: improved all markers of healthy circadian function
circadian rhythm of skin temperature: markers of healthy circadian function (IS, RA, CFI, IV) ([2]; listed as Aminosterol): improved all markers of healthy circadian function
circadian parameters during wash-out (IS, CFI) ([2]; wash-out period): improvement persisted for several of these circadian parameters
hallucinations and delusions improved or disappeared during treatment [3]: 5 of 6 and five
hallucinations and delusions improved or disappeared during treatment ([3]; listed as aminosterol): five and 5 of 6
improvement of arm or leg thrashing frequency ([3]; baseline 2.2 episodes/week to 0 at maximal dose): 100%
total sleep time versus baseline ([3]; beyond 125 mg): consistently higher than baseline
hallucinations/delusions did not return following discontinuation ([3]; in 1 patient): 4 weeks
hallucinations/delusions did not return following discontinuation ([3]; in another patient): 2 weeks
time free of hallucinations following cessation of dosing ([3]; one patient): 1 month
